Measured values as given in ChEMBL document CHEMBL3612054 (Bioorg Med Chem, 2015).
Converted amounts (≈) assume the structure as drawn.

Columns and labels:
[1] = Metabolic stability of the compound in plasma (unknown origin) assessed as compound remaining at 10 uM after 60 mins; format: ADME, cell-free; details: read-out: Stability
[2] = Solubility of the compound in 10 mM phosphate buffer at pH 7.4 after 90 mins by LC/MS analysis; format: physicochemical
MDCK = experiment: Permeability from apical to basolateral side in MDCK cells expressing human MDR1 at 10 uM after 1 hr by chromatography analysis; format: ADME, cell-based, Canis lupus familiaris; details: dog
[3] = Permeability of the compound at pH 7.4 at 10 uM by PAMPA; format: physicochemical; details: pH 7.4, 10 µM
[4] = target: T1, Voltage-gated inwardly rectifying potassium channel KCNH2 (Homo sapiens, UniProt Q12809)
Description: (§1) Displacement of [3H]-astemizole from human ERG

[5] = Solubility of the compound in 10 mM phosphate buffer at pH 3 after 90 mins by LC/MS analysis; format: physicochemical
[6] = Permeability of the compound at pH 5.5 at 10 uM by PAMPA; format: physicochemical; details: pH 5.5, 10 µM
[7] = Metabolic stability of the compound in hepatic S9 fraction (unknown origin) assessed as compound remaining at 10 uM after 60 mins; format: ADME, tissue-based, Liver; details: read-out: Stability
[8] = target: T1, Voltage-gated inwardly rectifying potassium channel KCNH2; remark: listed apart in the source
Description: as §1

[9] = target: Delta-type opioid receptor (Homo sapiens) (UniProt P41143)
Delta-type opioid receptor (Homo sapiens), sequence (P41143 whole entry): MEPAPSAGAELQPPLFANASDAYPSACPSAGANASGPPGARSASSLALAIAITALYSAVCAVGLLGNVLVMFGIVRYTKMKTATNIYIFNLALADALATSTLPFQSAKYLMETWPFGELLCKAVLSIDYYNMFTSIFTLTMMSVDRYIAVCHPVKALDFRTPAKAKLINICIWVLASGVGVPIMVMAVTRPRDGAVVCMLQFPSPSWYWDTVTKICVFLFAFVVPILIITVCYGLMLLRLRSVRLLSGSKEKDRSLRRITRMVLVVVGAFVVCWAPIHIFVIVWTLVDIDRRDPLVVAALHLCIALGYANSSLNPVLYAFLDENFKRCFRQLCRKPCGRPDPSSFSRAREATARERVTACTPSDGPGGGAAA
Description: Antagonist activity at cloned human delta opioid receptor assessed as inhibition of DPDPE-induced [35S]GTPgammaS binding

T1 sequence (Q12809 whole entry): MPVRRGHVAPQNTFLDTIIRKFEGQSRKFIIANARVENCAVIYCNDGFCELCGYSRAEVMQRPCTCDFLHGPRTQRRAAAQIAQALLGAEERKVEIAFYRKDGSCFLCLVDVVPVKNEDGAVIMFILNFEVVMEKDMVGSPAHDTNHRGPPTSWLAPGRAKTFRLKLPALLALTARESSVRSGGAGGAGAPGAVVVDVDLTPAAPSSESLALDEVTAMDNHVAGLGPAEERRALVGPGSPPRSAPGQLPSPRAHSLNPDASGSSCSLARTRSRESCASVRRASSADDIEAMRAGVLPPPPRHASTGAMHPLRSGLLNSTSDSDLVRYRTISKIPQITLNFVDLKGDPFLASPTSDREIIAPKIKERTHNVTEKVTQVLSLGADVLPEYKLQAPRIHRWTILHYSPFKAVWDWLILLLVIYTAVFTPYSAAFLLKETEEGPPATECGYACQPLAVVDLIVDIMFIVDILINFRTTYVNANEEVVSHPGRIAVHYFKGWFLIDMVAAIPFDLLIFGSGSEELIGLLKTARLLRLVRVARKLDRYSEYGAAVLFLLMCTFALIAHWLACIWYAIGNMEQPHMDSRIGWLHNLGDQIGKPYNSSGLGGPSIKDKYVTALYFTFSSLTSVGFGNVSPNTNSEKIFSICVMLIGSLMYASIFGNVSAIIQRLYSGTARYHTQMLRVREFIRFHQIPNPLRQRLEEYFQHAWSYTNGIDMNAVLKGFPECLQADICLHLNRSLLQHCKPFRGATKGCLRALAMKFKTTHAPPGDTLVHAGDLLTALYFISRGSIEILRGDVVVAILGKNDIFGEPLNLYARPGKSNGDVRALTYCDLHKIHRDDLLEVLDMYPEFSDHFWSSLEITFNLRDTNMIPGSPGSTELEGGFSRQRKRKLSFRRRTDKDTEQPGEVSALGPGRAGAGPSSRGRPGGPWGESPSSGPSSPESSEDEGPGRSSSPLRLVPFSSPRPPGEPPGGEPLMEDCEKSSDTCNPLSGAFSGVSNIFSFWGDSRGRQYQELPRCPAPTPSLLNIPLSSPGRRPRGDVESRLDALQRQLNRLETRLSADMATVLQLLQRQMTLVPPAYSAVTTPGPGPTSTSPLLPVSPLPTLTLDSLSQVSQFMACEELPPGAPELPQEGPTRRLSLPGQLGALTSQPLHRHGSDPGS

Row | SMILES | remaining at 1 h, 10 µM [1] [%] | solubility [2] [µM] | permeability (MDCK) [%] | permeability [3] [%] | Ki [4] [µM] | solubility [5] [µM] | permeability [6] [%] | remaining at 1 h, 10 µM [7] [%] | Ki [8] [µM] | Ke [9] [nM]
1 | CC(C)[C@@H](CN1CC[C@@](C)(c2ccccc2)[C@@H](C)C1)NC(=O)[C@H]1Cc2ccc(O)cc2CN1 | 67 | 11 (≈ 4.95 µg/mL) | 27 | 91.4 | 7.05 | 42 (≈ 18.9 µg/mL) | 67.3 | 82 |  | 
2 | CC(C)[C@@H](CN1CCC(C)(c2cccc(F)c2)CC1)NC(=O)[C@H]1Cc2ccc(O)cc2CN1 |  |  | 1.3 |  |  |  |  |  | 4.24 | 
3 | CC(C)[C@@H](CN1CCC(c2ccccc2)CC1)NC(=O)[C@H]1Cc2ccc(O)cc2CN1 |  |  |  |  |  |  |  |  | 0.777 | 281
4 | CC(C)[C@@H](CN1CC[C@@](C)(c2cccc(O)c2)[C@@H](C)C1)NC(=O)[C@H]1Cc2ccc(O)cc2CN1 [JDTIC] | 97 | 11 (≈ 5.12 µg/mL) | 11 |  | 8.82 | 34 (≈ 15.8 µg/mL) | 57.9 | 76 |  | 
5 | CC(C)[C@@H](CN1CCC(c2cccc(F)c2)CC1)NC(=O)[C@H]1Cc2ccc(O)cc2CN1 |  |  |  |  |  |  |  |  | 0.436 | 
